In ChEMBL document CHEMBL4402590, “Small-Molecule Antagonist Targeting Exportin-1 via Rational Structure-Based Discovery” (J Med Chem, 2020) one finds Activity and inhibition data, which are given here for two compounds.

Assay [1] deals with Mus musculus. Description: Anti-inflammatory activity against DSS-induced ulcerative colitis C57BL/6J mouse model assessed as reduction in body weight loss at 10 mg/kg, po administered for 7 days and measured daily. In kind it is functional, organism-based.
Assay [2] has as its system Mus musculus. Description: Anti-inflammatory activity against DSS-induced ulcerative colitis C57BL/6J mouse model assessed as reduction in diarrhea at 10 mg/kg, po administered for 7 days and measured daily. In kind it is functional, organism-based.
Assay [3] has as its system Mus musculus. In words: Anti-inflammatory activity against DSS-induced ulcerative colitis C57BL/6J mouse model assessed as restoration of colon length at 10 mg/kg, po administered for 7 days and measured on day 7. Type of assay: functional, organism-based.
Assay [4] has as its system Mus musculus. Description: Anti-inflammatory activity against DSS-induced ulcerative colitis C57BL/6J mouse model assessed as reduction in colon swelling at 10 mg/kg, po administered for 7 days and measured on day 7. In kind it is functional, organism-based.
In assay [5] the test system is Mus musculus. Description: Anti-inflammatory activity against DSS-induced ulcerative colitis C57BL/6J mouse model assessed as reduction in colon inflammation at 10 mg/kg, po administered for 7 days and measured on day 7. In kind it is functional, organism-based.
Assay [6] relates to Mus musculus. In words: Anti-inflammatory activity against DSS-induced ulcerative colitis C57BL/6J mouse model assessed as reduction in colon ulceration at 10 mg/kg, po administered for 7 days and measured on day 7. Type of assay: functional, organism-based.
The test system of assay [7] is Mus musculus. Description: Anti-inflammatory activity against DSS-induced ulcerative colitis C57BL/6J mouse model assessed as reduction in TNFalpha production at 10 mg/kg, po administered for 7 days and measured on day 7 by ELISA. Type of assay: functional, organism-based.
Assay [8] has as its system Mus musculus. In words: Anti-inflammatory activity against DSS-induced ulcerative colitis C57BL/6J mouse model assessed as reduction in IL-1beta production at 10 mg/kg, po administered for 7 days and measured on day 7 by ELISA. In kind it is functional, organism-based.
Assay [9] has as its system Mus musculus. Description: Anti-inflammatory activity against DSS-induced ulcerative colitis C57BL/6J mouse model assessed as reduction in IL-6 production at 10 mg/kg, po administered for 7 days and measured on day 7 by ELISA. Type of assay: functional, organism-based.
Assay [10] relates to Mus musculus. Description: Anti-inflammatory activity against DSS-induced ulcerative colitis C57BL/6J mouse model assessed as reduction in IL-23 production at 10 mg/kg, po administered for 7 days and measured on day 7 by ELISA. In kind it is functional, organism-based.
The subject of assay [11] is Mus musculus. In words: Anti-inflammatory activity against DSS-induced ulcerative colitis C57BL/6J mouse model assessed as restoration of damaged colon mucosal layer at 10 mg/kg, po administered for 7 days and measured on day 7 by ELISA. In kind it is functional, organism-based.
Assay [12] deals with Exportin-1 (Homo sapiens, UniProt O14980). In words: Reversible inhibition of CRM1 in human 293T cells assessed as increase in translocation of NES-GFP to […] at 4 uM incubated for 2 hrs by confocal laser scanning microscopy. Type of assay: cell-based.
Sequence of Exportin-1 (O14980 whole entry): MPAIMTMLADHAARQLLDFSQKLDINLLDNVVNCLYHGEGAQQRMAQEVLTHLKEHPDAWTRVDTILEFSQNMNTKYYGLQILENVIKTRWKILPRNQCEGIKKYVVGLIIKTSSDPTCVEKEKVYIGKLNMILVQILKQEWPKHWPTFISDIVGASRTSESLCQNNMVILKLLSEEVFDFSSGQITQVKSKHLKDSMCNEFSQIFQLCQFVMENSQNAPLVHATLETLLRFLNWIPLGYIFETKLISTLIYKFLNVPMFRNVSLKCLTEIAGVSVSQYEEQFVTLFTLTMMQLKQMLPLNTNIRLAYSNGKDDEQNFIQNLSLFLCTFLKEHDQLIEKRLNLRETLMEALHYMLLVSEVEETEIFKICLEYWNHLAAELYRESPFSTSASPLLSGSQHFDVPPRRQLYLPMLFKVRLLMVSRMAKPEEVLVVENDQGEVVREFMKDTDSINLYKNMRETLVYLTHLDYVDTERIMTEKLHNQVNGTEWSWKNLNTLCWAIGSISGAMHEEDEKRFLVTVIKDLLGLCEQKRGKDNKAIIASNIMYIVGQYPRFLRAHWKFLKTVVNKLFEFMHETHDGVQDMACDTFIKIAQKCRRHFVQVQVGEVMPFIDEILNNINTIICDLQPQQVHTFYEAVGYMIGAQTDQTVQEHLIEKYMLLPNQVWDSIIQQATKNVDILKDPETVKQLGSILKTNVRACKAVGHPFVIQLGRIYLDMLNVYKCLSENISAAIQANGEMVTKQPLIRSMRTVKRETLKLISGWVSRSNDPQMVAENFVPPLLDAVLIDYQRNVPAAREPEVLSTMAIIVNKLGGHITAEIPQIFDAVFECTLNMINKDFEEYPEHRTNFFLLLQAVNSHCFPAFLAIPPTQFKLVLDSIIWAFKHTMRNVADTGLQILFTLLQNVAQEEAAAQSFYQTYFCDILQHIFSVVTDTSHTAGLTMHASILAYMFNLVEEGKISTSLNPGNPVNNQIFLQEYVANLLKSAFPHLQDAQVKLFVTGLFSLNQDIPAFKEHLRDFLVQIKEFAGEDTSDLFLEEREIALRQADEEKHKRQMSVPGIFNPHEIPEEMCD

The source made the active and inactive calls. The calls are words filed in the database; no cut-off is given here.

As for `O=C(O)C[C@H]1CCc2c1[nH]c1ccc(OCc3ccc(C4CCCC4)c(C(F)(F)F)c3)cc21`, the result in assay [1], in [2], in assay [3], in assay [4], in assay [5] and in assay [6] was Active. Further, the outcome in assay [7], in assay [8], in assay [9], in assay [10] and in assay [11] was Active.
For the compound `O=C(/C=C\n1cnc(-c2cc(C(F)(F)F)cc(C(F)(F)F)c2)n1)NNc1cnccn1`, in [12], the inhibition entry was “inactive”.
